These results are taken from ChEMBL document CHEMBL1165964, “Design and synthesis of spirotryprostatin-inspired diketopiperazine systems from prolyl spirooxoindolethiazolidine derivatives” (Bioorg Med Chem, 2010).

Holding throughout (assay type): functional, cell-based
Experiment [1] has as its system MCF7. The experiment in a line: Cytotoxicity against human MCF7 cells at 100 uM after 48 hrs by MTT assay. (In general: Formazan colour is commonly taken as a measure of viable cells.)
For experiment [2], the system named is A-431. The experiment in a line: Cytotoxicity against human A431 cells at 100 uM after 48 hrs by MTT assay.
For experiment [3], the system named is MCF7. The experiment in a line: Cell cycle arrest in human MCF7 cells.
In experiment [4] the test system is T47D. Put plainly: Cytotoxicity against human T47D cells at 100 uM after 48 hrs by MTT assay.
Experiment [5] relates to MCF7. The experiment in a line: Cytotoxicity against human MCF7 cells after 48 hrs by MTT assay. Conditions: MCF7, 48 h.
The nature of experiment [6]: Cell cycle arrest in mouse tsFT210 cells assessed as accumulation of cells at G2/M phase.

Calls of active or inactive are those of the source. The rule behind the calls is not given here.

In the case of `CN1C(=O)[C@@]2(SC[C@H]3C(=O)N4CCC[C@H]4C(=O)N32)c2ccccc21`, the result in experiment [1], in experiment [2], in experiment [3] and in experiment [4] was inactive.

On to `Cc1ccc2c(c1)[C@@]1(SC[C@H]3C(=O)N4CCC[C@H]4C(=O)N31)C(=O)N2`, for which the result in experiment [1], in experiment [2], in experiment [3] and in experiment [4] was inactive.

Turning to `O=C1[C@@H]2CS[C@@]3(C(=O)Nc4ccccc43)N2C(=O)[C@@H]2CCCN12`, the result in experiment [1], in experiment [2], in experiment [3] and in experiment [4] was inactive.

On to `CCOC(=O)[C@@]1(c2cc(Br)ccc2N)SC[C@H]2C(=O)N3CCC[C@H]3C(=O)N21`, for which the IC50 in experiment [5] was determined as 2.2 µM.

In the case of `O=C1[C@@H]2CS[C@@]3(C(=O)Nc4ccc(Br)cc43)N2C(=O)[C@@H]2CCCN12`, the result in experiment [1], in experiment [2], in experiment [3] and in experiment [4] was inactive.

As to `CCOC(=O)[C@@]1(c2ccccc2N)SC[C@H]2C(=O)N3CCC[C@H]3C(=O)N21`, half-maximal inhibition in experiment [5] (IC50) required 14.8 µM.

On to `CN1C(=O)[C@]2(SC[C@H]3C(=O)N4CCC[C@H]4C(=O)N32)c2ccccc21`, for which the result in experiment [1], in experiment [2], in experiment [3] and in experiment [4] was inactive.

As to `Cc1ccc2c(c1)[C@]1(SC[C@H]3C(=O)N4CCC[C@H]4C(=O)N31)C(=O)N2`, the result in experiment [1], in experiment [2], in experiment [3] and in experiment [4] was inactive.

Turning to `O=C1[C@@H]2CS[C@]3(C(=O)Nc4ccccc43)N2C(=O)[C@@H]2CCCN12`, the result in experiment [1], in experiment [2], in experiment [3] and in experiment [4] was inactive.

Regarding `COc1ccc2c(c1)NC(=O)[C@@]21C[C@H]2C(=O)N3CCC[C@H]3C(=O)N2[C@H]1C=C(C)C` [SPIROTRYPROSTATIN A], in experiment [6], the IC50 was 198 µM.

For `O=C1[C@@H]2CS[C@]3(C(=O)Nc4ccc(Br)cc43)N2C(=O)[C@@H]2CCCN12`, the result in experiment [1], in experiment [2], in experiment [3] and in experiment [4] was inactive.

As to `CCOC(=O)[C@@]1(c2cc(C)ccc2N)SC[C@H]2C(=O)N3CCC[C@H]3C(=O)N21`, in experiment [5], the IC50 turned out to be 1.6 µM.

What is called IC50 is the concentration needed to halve the response being measured.
